Data set [1] in a line: Serum stability (serum incubation and western blot). The class given is in vitro ADME, human. As to the method: Serum stability of Construct 1. Over the last decade, there was a considerable interest in developing antimicrobial peptides as intravenously administered antibiotics. In this respect, a common criticism of peptide-based drugs has been their susceptibility to endogenous proteases. […] To test the in vitro stability of Construct 1 we used a serum-incubation and western blot analysis. Construct 1 was incubated in fresh human serum at 37° C. and pH=7.4 with a starting concentration of 10 μM. Samples were withdrawn at predetermined time points and each sample diluted 20-fold with loading buffer prior to analysis by western blot (FIG. 7).

For a further data set, the system named is E. coli O111:B4. The data set is described as follows: In vitro growth inhibition assay (turbidity at 600 nm). In kind it is cell-based. The conditions noted are these: added at mid-logarithmic phase, QF8 at 25 micrometers, NEG-1 at 100 micrometers, Construct 1 at 7, 10, and 25 micrometers, vs untreated bacteria. The protocol: FIG. 6. Bacterial growth inhibition assays in presence of (a) growth media; (b) negative control peptide NEG1 at 100 micromolar; (c) 25 micromolar peptide QF8 (SEQ ID NO: 33 Table 2); (d) 7 micrommolar QF8-PEG Construct 1; (e) 10 micromolar QF8-PEG Construct 1; (f) 17.5 micromolar QF8-PEG construct 1; (g) 25 micromolar QF8-PEG Construct 1; (h) 100 IU penicillin/streptomycin as a positive control.
In vitro growth inhibition assays. Growth of E. coli O111:B4 was assessed in the presence of different concentrations of NEG-1, QF8, and Construct 1 using turbidity at 600 nm. […]
In vitro inhibition assays. […] Growth was monitored as turbidity at 600 nm. Experiments were performed at 30 degrees Centigrade in microtiter plates with 100 microliters of culture using a Spectra Max Plus microtiter plate reader with Soft Max Pro Software (Molecular devices). The turbidity was measured every 5 minutes and the plate was shaken for 30 seconds before each measurement. Bacteria concentration was calculated according to the McFarland general method using the absorbance at 600 nm of a series of mixtures of 1% barium chloride and 1% sulfuric acid.

The subject of another data set is LPS. The conditions noted are these: Morales et al., 2009; cited from earlier work.

The values below come from patent publication US20110136727A1, “Compositions and methods for rapid selection of pathogen binding agents” (priority 2009, published 2011).

Where no end group is shown, it is not given here.

With “Construct 1: tetravalent mPEG-maleimide (MW 20 kDa) conjugated with QF8 peptide (HRKPKFRHHHFKWKHWKGSC; also: conjugated with tetravalent 20 kDa mPEG-maleimide)”, the “Time for which proteolysis was resisted” value in data set [1] (fresh human serum, 37° C., pH=7.4, starting concentration 10 μM, western blot) is “more than 8 hours”. Further, the “Degradation in human serum, monomeric peptide vs tetravalent PEG scaffold” value in data set [1] (human serum, western blot probed with Streptavidin-AlexaFluor 647 (FIG. 7)) was “prolonged the half-life”. For the same substance, in the data set on E. coli O111:B4, the “Growth of E. coli O111:B4 (growth curves, bacterial count)” value is given as “dramatic decrease in bacterial count”.

In the case of “EFSNPTAQVFPDFWMSDGSC [NEG-1, negative control peptide, reference compound]”, in the data set on E. coli O111:B4, the “Growth of E. coli O111:B4 (growth curves, bacterial count)” value is on record as “no changes”. For the same substance, the “Binding to the bacteria and to LPS” value in the data set on LPS is reported as “bind neither to the bacteria nor to LPS”.
